Data from ChEMBL document CHEMBL1153807, “An inhibitor of CCL2-induced chemotaxis from the fungus Leptoxyphium sp” (J Nat Prod, 2009).
Activity calls are given as the source filed them. The rule behind the calls is not given here.

How the values were obtained:
Assay type in all cases: cell-based
[1] = biological target: C-C chemokine receptor type 2 (Homo sapiens) (UniProt P41597); assay: Inhibition of CCR2 in human monocytes assessed as CCL2-induced cell migration at 100 uM after 1.5 hrs by micro-Boyden chamber
C-C chemokine receptor type 2 (Homo sapiens), sequence (P41597 whole entry, looked up): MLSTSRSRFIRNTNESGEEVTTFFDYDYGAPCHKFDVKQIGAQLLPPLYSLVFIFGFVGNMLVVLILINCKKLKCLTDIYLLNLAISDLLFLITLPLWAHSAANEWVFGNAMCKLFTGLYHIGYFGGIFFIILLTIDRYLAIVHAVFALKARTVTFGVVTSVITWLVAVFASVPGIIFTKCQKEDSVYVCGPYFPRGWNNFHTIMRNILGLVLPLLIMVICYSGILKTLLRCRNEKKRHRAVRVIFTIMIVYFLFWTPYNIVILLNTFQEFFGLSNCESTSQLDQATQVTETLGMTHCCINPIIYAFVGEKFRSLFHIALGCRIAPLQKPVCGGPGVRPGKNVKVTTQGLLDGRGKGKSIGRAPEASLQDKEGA

[2] = Cytotoxicity against human monocytes at 100 uM after 24 hrs; details: monocyte
[3] = biological target: C-C chemokine receptor type 2 (Homo sapiens) (UniProt P41597); assay: Inhibition of CCR2 in human monocytes assessed as cell migration at 100 uM after 30 mins
[4] = biological target: C-C chemokine receptor type 2 (Homo sapiens) (UniProt P41597); assay: Inhibition of CCR2 in human monocytes assessed as CCL2-induced cell migration at 10 uM after 1.5 hrs by micro-Boyden chamber

| Structure (SMILES) | inhibition [1] | Activity [2] | inhibition [3] | inhibition [4] |
| --- | --- | --- | --- | --- |
| O=C1N[C@@H](Cc2ccc(O)cc2)C(=O)N2CCC[C@@H]12 | inactive | Non-toxic | inactive |  |
| O=C1N[C@H](Cc2cc(Cl)c(O)c(Cl)c2)C(=O)N2CCC[C@H]12 |  | Non-toxic |  | Active |
| CC(C)C[C@@H]1C(=O)N[C@@H](Cc2c[nH]c3ccccc23)C(=O)N1C | inactive | Non-toxic |  |  |
| CON1C(=O)C2NC(=O)[C@@]13Oc1cc(O)c(Cl)cc1[C@@H]3SS2 |  | Toxic |  |  |
